The values that follow come from patent US8604085B2, “Bupropion hydrobromide polymorphs” (Valeant International Bermuda, priority 2008, dated 2013).

The structures appear in SMILES notation. Entries after “also recorded” stand apart in the source; their conditions may differ. Where a name gives a salt, the structure may show the parent alone.

Common to all, as to format: physicochemical
Series [1] in a line: Stability tests on bupropion hydrobromide polymorphs in humidity chamber (XRD pattern). The following applies: 40° C., 85% R.H., open sample-holder. The procedure:
Stability tests were performed on bupropion hydrobromide Form I, Form II, Form III, Form IV, Form V and Form VI. The powders were stored in a controlled atmosphere (85% R.H.) at 40° C. Form I and Form II were stored for 7 and 30 days respectively, while the other forms were stored only for 30 days. The sample was positioned on the sample-holder which was introduced, without any cover, into the humidity chamber at 40° C. The layer of the sample on the sample-holder was about 0.5 cm.
In addition, stability tests were performed on bupropion hydrobromide Form VII.

Series [2] can be described thus: TGA and DSC characterization. The following applies: for TGA (mass change): successive mass-loss steps listed per polymorph; for DSC (onset ° C.): successive thermal events listed per polymorph. As for the experimental part: The PXRD diffraction patterns were obtained on X-ray powder diffraction PANalytical X′pert Pro equipped with X′Celerator, in a measurement range between 3 and 40 2 theta. All the DSC experiments were performed with a DSC 7 Perkin Elmer instrument in a temperature range between 25° C. and 250° C. with a heating rate of 10° C./min.
All the TGA experiments were conducted with a TGA 7 Perkin Elmer instrument in a temperature range between 39° C. and 310° C. with a heating rate of 10° C./min.
PXRD, DSC, TGA and IR analyses were obtained for Bupropion Hydrobromide Polymorph Form I, Form II, Form III, Form IV, Form V, Form VI, and Form VII. PXRD analyses were obtained for the amorphous form. With respect to the PXRD analyses, the Peak List is shown for Form I, Form II, Form III, Form IV, Form V, Form VI, Form VII and the amorphous form in Table 56, Table 57, Table 58, Table 59, Table 60, Table 61, Table 62 and Table 63 respectively.

Series [3] can be described thus: Stability tests on bupropion hydrobromide polymorphs in humidity chamber (XRD pattern). Particulars: 28 days; 25° C.; 75% R.H.
A short description of series [4]: Slurry experiments at room temperature (thermodynamic stability of crystal forms, X-ray diffraction). The following applies: for Slurry Result: 7 days, room temperature, form by XRD. As for the experimental part:
Slurry experiments of Form I were performed at room temperature to verify if Form I is the thermodynamic crystal form. 0.050 g of Form I was suspended in 2 ml of solvent and stirred for 1 week. The sample was filtered and analyzed by X-ray diffraction. In the large majority of the experiments, Form I converts into Form II. […] By 1,4-Dioxane, a new crystal form was obtained named Form V. See Table 46 for the Form I slurries results (7 days).
Further slurry experiments of Form I were performed at room temperature using 0.5 g of powder in 10 mL of solvent to confirm the results obtained even in large scale.
0.050 g of Form I were suspended in 2 ml of solvent and stirred at room temperature for 4 weeks (30 days). The sample was filtered and analyzed by X-ray diffraction. By 1,4-Dioxane, Form V was obtained. By tetrahydrofuran, Form II and Form VII were obtained. […] See Table 47 for the Form I slurries results (30 days).
Slurry experiments of mixtures of Form I and Form II were performed at room temperature to verify their thermodynamic stability. 0.040 g of Form I+0.040 g of Form II were suspended in 4 ml of solvent and stirred for 1 week (7 days). The samples were filtered and analyzed by X-ray diffraction. By 1,4-Dioxane, Form V was obtained. […] See Table 48 for the Form I+Form II slurries results (7 days).
Slurry experiments of mixtures of Form II and Form III were performed at room temperature to verify their thermodynamic stability. 0.040 g of Form II+0.040 g of Form III were suspended in 4 ml of solvent and stirred for 1 week (7 days). The samples were filtered and analyzed by X-ray diffraction. By 1,4-Dioxane, Form V was obtained. […] See Table 49 for the Form II+Form III slurries results (7 days).
Slurry experiments of mixtures of Form II and Form IV were performed at room temperature to verify their thermodynamic stability. 0.040 g of Form II+0.040 g of Form IV were suspended in 4 ml of solvent and stirred for 1 week (7 days). The samples were filtered and analyzed by X-ray diffraction. By 1,4-Dioxane, Form V was obtained. […] See Table 50 for the Form II+Form IV slurries results (7 days).
Slurry experiments of mixtures of Form II and Form V were performed at room temperature to verify their thermodynamic stability. 0.040 g of Form II+0.040 g of Form V were suspended in 4 ml of solvent and stirred for 1 week (7 days). The samples were filtered and analyzed by X-ray diffraction. By 1,4-Dioxane, Form V was obtained. […] See Table 51 for the Form II+Form V slurries results (7 days).
Slurry experiments of mixtures of Form II and Form VI were performed at room temperature to verify their thermodynamic stability. 0.040 g of Form II+0.040 g of Form VI were suspended in 4 ml of solvent and stirred for 1 week (7 days). The samples were filtered and analyzed by X-ray diffraction. By 1,4-Dioxane, Form V was obtained. […] See Table 52 for the Form II+Form VI slurries results (7 days).
Slurry experiments of mixtures of Form II and Form VII were performed at room temperature to verify their thermodynamic stability. 0.040 g of Form II+0.040 g of Form VII were suspended in 4 ml of solvent and stirred for 1 week (7 days). The samples were filtered and analyzed by X-ray diffraction. By 1,4-Dioxane, Form V was obtained. […] See Table 53 for the Form II+Form VII slurries results (7 days).

A short description of series [5]: Slurries in 2-propanol at room temperature, 50° C. and 80° C. The following applies: form by XRD. As for the experimental part:
0.050 g of Form I were suspended in 4 ml of solvent and stirred at room temperature. for 1 week (7 days). The sample was filtered and analyzed by X-ray diffraction.
0.040 g of Form I+0.040 g of Form II were suspended in 4 ml of solvent and stirred at room temperature for 1 week (7 days). The sample was filtered and analyzed by X-ray diffraction experiments.
0.050 g of Form II were suspended in 4 ml of solvent and stirred at room temperature for 1 week (7 days). The sample was filtered and analyzed by X-ray diffraction experiments.
0.050 g of Form I were suspended in 4 ml of solvent and stirred at 50° C. for 1 Week (7 days). The sample was filtered and analyzed by X-ray diffraction experiments.
0.040 g of Form I+0.040 g of Form II were suspended in 4 ml of solvent and stirred at 50° C. for 1 week (7 days). The sample was filtered and analyzed by X-ray diffraction experiments.
Form I+Form II were suspended in solvent and stirred at 80° C. for 14 hours. The sample was filtered and analyzed by X-ray diffraction experiments. […] Slurry in 2-propanol at 80° C. is an atypical experiment because if we consider the boiling point of the solvent, it could be defined as a combination between a slurry and precipitation experiment. Form I was obtained during the precipitation from supersaturated solution by 2-propanol. However the high temperature and the reflux produce the energetic conditions needed by the stable crystal form (Form II) to convert to the metastable crystal form (Form I).

The nature of series [6]: Release of bupropion base from the salt. The following applies: 150 mg of the salt tested. As for the experimental part: It was previously observed that when 150 mg of bupropion HCl was tested for its release of bupropion, the base value that was released was 130 mg. However, when 150 mg of bupropion HBr was tested, the base value released was only 112 mg. Thus, the amount of bupropion HBr had to be increased in order to increase the base value from 112 mg to 130 mg, which was the target.

Setting [7] is: room temperature, 1 week (7 days).

Regarding `Br.CC(NC(C)(C)C)C(=O)c1cccc(Cl)c1` (single isomer, unassigned) [Form VI], the “XRD pattern / crystal form after storage” value in series [1] (30 days) was “converted into a mixture of Form I+Form II”. In series [2], the “TGA (mass change)” value was −97.68% and the “DSC (onset ° C.)” value turned out to be 235 °C.
With `Br.CC(NC(C)(C)C)C(=O)c1cccc(Cl)c1` (centres unmarked) [Form V], in series [1] (30 days), the “XRD pattern / crystal form after storage” value is recorded as “converted into Form I”. Besides, the “DSC (onset ° C.)” value in series [2] was found to be 237.85 °C.
On to `Br.CC(NC(C)(C)C)C(=O)c1cccc(Cl)c1` (centres unmarked) [Form IV], for which, in series [1] (30 days), the “XRD pattern / crystal form after storage” value is “converted into Form I”.
On the same count and under the same terms, the same measure for `Br.CC(NC(C)(C)C)C(=O)c1cccc(Cl)c1` (centres unmarked) [Form III]: “converted into Form I”.
On to `Br.CC(NC(C)(C)C)C(=O)c1cccc(Cl)c1` (centres unmarked) [Form VII], for which the “DSC (onset ° C.)” value in series [2] turned out to be 268.7 °C. Further, the “XRD pattern / crystal form after storage” value in series [3] is “stable form”.
With `Br.CC(NC(C)(C)C)C(=O)c1cccc(Cl)c1` (single isomer, unassigned) [Form II], in series [4], the “Thermodynamic stability of the crystal form as shown by slurry experiments” value is on record as “thermodynamically stable crystal form; also recorded: thermodynamic stable form”. The “Slurry result in 2-propanol” value in series [5] (mixture Form I+Form II, 80° C., 14 hours) is “converted to Form I”; in series [5] (setting [7]), “Form II was obtained”. In addition, the “XRD pattern / crystal form after storage” value in series [1] (7 days) and in series [1] (30 days) was “did not show modification” in each case. For the same compound, the “TGA (mass change)” value in series [2] is reported as −93.35%.
In the case of `Br.CC(NC(C)(C)C)C(=O)c1cccc(Cl)c1` (centres unmarked) [Form II + Form III], the “Slurry Result” value in series [4] (1,2-Dimethoxy Ethane) is “Form II”; in series [4] (1,4-Dioxane), “Form V”; in series [4] (Acetone), “Form II”; in series [4] (Diethyl ether), “Form II”; in series [4] (Ethyl acetate), “Form II”; in series [4] (n-Hexan), “Form II”. Also, the “Slurry Result” value in series [4] (p-Xylene) is recorded as “Form II”.
Regarding `Br.CC(NC(C)(C)C)C(=O)c1cccc(Cl)c1` (centres unmarked) [Form I + Form II], the “Slurry Result” value in series [4] (1,2-Dimethoxy Ethane) is “Form II”; in series [4] (1,4-Dioxane) it was “Form V”; in series [4] (Acetone), “Form II”; in series [4] (Diethyl ether), “Form II”; in series [4] (Ethyl acetate), “Form II”; in series [4] (n-Hexan) it was “Form II”. Further, in series [4] (p-Xylene), the “Slurry Result” value is recorded as “Form II”. Also, the “Slurry result in 2-propanol” value in series [5] (50° C., 1 week (7 days)) is listed as “Form II was obtained”; in series [5] (setting [7]), “Form II was obtained”.
On to `CC(NC(C)(C)C)C(=O)c1cccc(Cl)c1` (centres unmarked) [bupropion HCl, reference compound], for which, in series [6], the “base value that was released” value stood at 130 mg.
